tested on: C57BL/6 mice; test: In vivo hair growth promoting effects on shaved back of C57BL/6 mice; set-up: species or system mouse; conditions: seven week-old female C57BL/6 mice in telogen, 100 ul applied once a day for 30 days, compared to vehicle control
Procedure: Seven week-old, female C57BL/6 mice were housed in groups of 7 to 11 animals. Mice were in the telogen stage of the hair cycle when used, as indicated by the pinkish color of the skin.
The mice's hair of the region of back was shaved by a clipper. After a one day for adaptation 100 ul of [γ-hydroxy-methylleucine^4] cyclosporin A was applied on the shaved portion once a day for a period of 30 days. After determining the degree of hair growth by the naked eye, the results were photographed. […] In contrast, animals treated with the derivatives (the 11 derivatives mentioned in REFERENCE EXAMPLES 6 to 11) were almost at the level of the control group, having virtually no effects (data not shown).
The test expanded to the derivatives modified on No. 4 amino acid, methylleucine. The results of the hair growth-stimulating effects on the derivatives in which the original No. 4 amino acid, methylleucine, is substituted with the similarly structured methylisoleucine, methylvaline, leucine, isoleucine, methylalanine (REFERENCE EXAMPLES 1 to 5) are represented in FIG. 17 to FIG. 23, wherein the hair growth-stimulating effects of […], [methylvaline^4] (FIG. 20), [leucine^4] (FIG. 21), [isoleucine^4] (FIG. 22), [methylalanine^4]

| Substance | degree of hair growth (hair growth promoting effect) by the naked eye, photographed |
| --- | --- |
| [methylisoleucine^4] cyclosporin A [[methylleucine^4]] | much lesser than cyclosporin A |
| [MeAla^4] cyclosporin A [[methylalanine^4]] | much lesser than cyclosporin A |
| [MeVal^4] cyclosporin A [[methylvaline^4]] | much lesser than cyclosporin A |
| [Leu^4] cyclosporin A [[leucine^4]] | much lesser than cyclosporin A |
| [Ile^4] cyclosporin A [[isoleucine^4]] | much lesser than cyclosporin A |

Reference: US6521595B1, “Nonimmunosuppressive [γ-hydroxy-methylleucine4] cyclosporin A, hair growth stimulator and external composition for skin using the same” (LG Chemical, Ltd., priority 1999, dated 2003)
